Experimental data published in patent US8067669B2, “Method for inducing resistance to fungal infection in transgenic plants using plant defense peptides” (The Curators Of The University Of Missouri, priority 2000, dated 2011).

Columns and labels:
P. capsici zoospores [1] = assay: Encystment assay with phage-displayed peptides; format: cell-based, Phytophthora capsici; details: phage 2.5×10^9 virion; 20 minute incubation at room temperature
Experimental: Following binding, the pathogen is observed for alterations in its development or ability to infect a host. […] The range of phage concentrations can vary, but generally ranges between 1 to 10×10^9 virion/μl. A negative control containing no phage is included in each screening. After an incubation period of usually about 20 minutes at room temperature, the number of zoospores encysted at each phage concentration is determined. Using this method it is possible to rationally select peptides of defined character and evaluate them for species- and life stage-specific induction of receptor-mediated functional responses, such a zoospore encystment. Peptides found to interfere with the development of a pathogen can be used to prevent or limit infection of a host with the pathogen.
Selected phage clones were isolated according to Smith and Scott (Methods in Enzymology, 217:228-257, 1993), and twice purified using polyethylene glycol as described above with the exception that phage were resuspended in distilled water instead of TBS. The virion concentration was calculated by measuring the absorbance at A269 (Smith and Scott, Methods in Enzymology, 217:228-257, 1993). Water droplets of approximately 20 μl containing about 400 freshly released zoospores were incubated with phage at two-fold serial dilutions so that they contained phage-bearing peptides at concentrations of either 1×10^10, 5×10^9, 2.5×10^9 or 1.25×10^9 virion/μl of droplet. A negative control received no phage and was used to monitor the amount of spontaneous encystment in the zoospore population. After a 20 minute incubation at room temperature, the number of encysted zoospores was counted using a microscope at 100× magnification. The virion concentration of phage was calculated according to Smith and Scott (Methods in Enzymology, 217:228-257, 1993).

U. appendiculatus = assay: Inhibition of germling (germinated uredospore) growth; format: cell-based, Uromyces appendiculatus; details: phage-peptide clones, ~250 germinated spores with 3×10^12 at 20 C overnight; listed as clone 19
Text: Part D entails the generation of additional Sub-libraries by use of further rounds of biopanning including rounds 2, 3 and 4. Part B is repeated three times: • 1. For biopanning round 2, 4.2×10^11 TU phages from the 2nd Sub-library are used to produce Sub-library 3; • 2. For biopanning round 3, 5.6×10^11 TU phages amplified from the 2nd biopanning are used to produce Sub-library 4; and • 3. For biopanning round 4, 5.1×10^11 TU phages amplified from the 3rd biopanning are used to produce Sub-library 5. Colonies from biopanning-round 4 are picked, sequenced, and tested for inhibition of germling growth.
Part E entails testing for inhibition of uredospore growth. Incubate 30 ul of germinated spores (˜250) with 3×10^12 at 20 C overnight. Assess fungal germ tube growth (i.e. germling growth) and compare with water and f88, i.e. phage only without any display peptide, as controls.

P. capsici zoospores [2] = assay: Binding of phage-displayed peptides to zoospores (eluted phage titered as TU); set-up: species or system Phytophthora capsici; details: 5×10^10 TU phage with 200,000 zoospores, 30 minutes incubation
Experimental: An aliquot of 10^11 transducing units (TU) from the f8-1 library (Petrinko et al., Protein Engineering, 9:797-801, 1996) was added to 10^6 freshly released P. capsici zoospores at room temperature in 4 ml of 50 mM LiCl and incubated for 30 minutes at room temperature with gentle agitation. The same procedure was used for the 188-4 library except in some cases P. sojae zoospores were used (Soj clones). The zoospores containing the bound phage were washed 10 times in 150 μl of 50 mM LiCl and centrifuged at 1000×g for 45 seconds to remove unbound phage. After the tenth wash, the bound phage were eluted with 200 μl of elution buffer (0.1 N HCl, glycine sufficient to bring pH to 2.2, 1 mg/ml bovine serum albumin). […] Selective enrichment of the zoospore-binding phage was monitored by calculating the percent yield after each round of selection as described in Smith and Scott (Methods in Enzymology, 217:228-257, 1993). This was done by calculating the total phage (expressed as transducing units) that was applied to the zoospores and measuring the total output of phage (as transducing units) that was recovered from the zoospores and expressing the result as a percentage. […]
Phage vector was included as a control treatment. […] Phage eluted from the zoospore population were titered in E. coli K91BluKan cells and expressed as total transducing units. […]

P. capsici cysts = assay: Binding of phage-displayed peptides to cysts (eluted phage titered as TU); set-up: species or system Phytophthora capsici; details: 5×10^10 TU phage

| Sequence | level of encystment of P. capsici zoospores (P. capsici zoospores [1]) | other results |
| --- | --- | --- |
| ADPPRTVST (Random peptide insert) [Pc78] | high levels of encystment | – |
| NHVSTLKTRHRLIPF (Random peptide insert) [Pp 19] | – | growth inhibition of U. appendiculatus (germlings) (U. appendiculatus): inhibition |
| AGLTSPNDM (Random peptide insert) [Pc15B] | low levels of encystment | – |
| AVSPNVHDG (Random peptide insert) [Pc42] | high levels of encystment | – |
| AAPDLQDAM (Random peptide insert) [Pc56] | low levels of encystment | – |
| ADITDPMGA (Random peptide insert) [Pc64] | high levels of encystment | – |
| ADRPSMSPT (Random peptide insert) [Pc87] | high levels of encystment | phage eluted from zoospores (P. capsici zoospores [2]): More than 10^7 TU; phage eluted from cysts (P. capsici cysts): less than 10^4 TU |
| AEHQNSAGP (Random peptide insert) [Pc45] | low levels of encystment | phage eluted from zoospores (P. capsici zoospores [2]): about 50,000 TU |
